Measurements reported in US6737383B1, “Herbicidal oxadiazolidines” (priority 1999, dated 2004).

What was measured:
[1] = test system: surinam grass; assay: Test B pre/postemergence surinam grass; format: in vivo, Brachiaria decumbens
Method in brief: (§1)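 Response is a visual 0-to-10 score relative to untreated plants, where 0 means no effect and 10 means complete control, taken twelve to sixteen days after application. Treatments went onto soil at planting and onto foliage of 1- to 4-leaf plants, using a surfactant-containing non-phytotoxic solvent.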

[2] = test system: purple nutsedge; assay: Test B pre/postemergence purple nutsedge; format: in vivo, Cyperus rotundus
Method in brief: as §1

[3] = test system: corn; assay: Test B pre/postemergence corn; format: in vivo, Zea mays
Method in brief: as §1

[4] = test system: soybean; assay: Test B pre/postemergence soybean; format: in vivo, Glycine max
Method in brief: as §1

[5] = test system: wheat; assay: Test B pre/postemergence wheat; format: in vivo, Triticum aestivum
Method in brief: as §1

[6] = test system: bamyardgrass; assay: Test B flood test barnyardgrass; format: in vivo, Echinochloa crus-galli
Method in brief: (§2)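 Each value is a visual injury score relative to controls, with 10 meaning complete control and 0 no effect. Evaluation took place twelve to sixteen days after the 2-leaf-stage plants were treated and kept in the greenhouse.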

[7] = test system: rape; assay: Test B pre/postemergence rape; format: in vivo, Brassica napus
Method in brief: as §1

[8] = test system: wild oat; assay: Test B pre/postemergence wild oat; format: in vivo, Avena fatua
Method in brief: as §1

[9] = test system: bedstraw; assay: Test B pre/postemergence bedstraw; format: in vivo, Galium aparine; settings: Preemergence; for Bedstraw plant response rating: scale 0 to 10, 0 is no effect, 10 is complete control
Method in brief: as §1

[10] = test system: sugar beet; assay: Test B pre/postemergence sugar beet; format: in vivo, Beta vulgaris
Method in brief: as §1

[11] = test system: blackgrass; assay: Test B pre/postemergence blackgrass; format: in vivo, Alopecurus myosuroides
Method in brief: as §1

[12] = test system: crabgrass; assay: Test B pre/postemergence crabgrass; format: in vivo, Digitaria sanguinalis
Method in brief: as §1

[13] = test system: giant foxtail; assay: Test B pre/postemergence giant foxtail; format: in vivo, Setaria faberii
Method in brief: as §1

[14] = test system: pigweed; assay: Test B pre/postemergence pigweed; format: in vivo, Amaranthus retroflexus
Method in brief: as §1

[15] = test system: velvetleaf; assay: Test B pre/postemergence velvetleaf; format: in vivo, Abutilon theophrasti
Method in brief: as §1

[16] = test system: cocklebur; assay: Test B pre/postemergence cocklebur; format: in vivo, Xanthium strumarium
Method in brief: as §1

[17] = test system: smallflower flatsedge; assay: Test B flood test smallflower flatsedge; format: in vivo, Cyperus difformis
Method in brief: as §2

[18] = test system: duck salad; assay: Test B flood test duck salad; format: in vivo, Heteranthera limosa
Method in brief: as §2

[19] = test system: morningglory; assay: Test B pre/postemergence morningglory; format: in vivo, Ipomoea hederacea
Method in brief: as §1

[20] = test system: rice; assay: Test B flood test rice; format: in vivo, Oryza sativa
Method in brief: as §2

[21] = Postemergence, Rate 125 g/ha, scale 0 to 10, 0 is no effect, 10 is complete control
[22] = Postemergence, Rate 500 g/ha, scale 0 to 10, 0 is no effect, 10 is complete control
[23] = Preemergence, Rate 62 g/ha, scale of 0 to 10 where 0 is no effect and 10 is complete control
[24] = Preemergence, Rate 125 g/ha, scale 0 to 10, 0 is no effect, 10 is complete control
[25] = Preemergence, Rate 250 g/ha, scale 0 to 10, 0 is no effect, 10 is complete control
[26] = Preemergence, Rate 500 g/ha, scale 0 to 10, 0 is no effect, 10 is complete control
[27] = Rate 62 g/ha, Postemergence, scale 0 to 10 (0 no effect, 10 complete control)
[28] = Postemergence, Rate 250 g/ha, scale 0 to 10
[29] = Rate 62 g/ha, flood test species, Pre-emergence, visual evaluation after twelve to sixteen days
[30] = Rate 125 g/ha, under heading Pre-emergence, flood test species, visual evaluation after twelve to sixteen days
[31] = Rate 250 g/ha, Pre-emergence (flood test species), scale 0 to 10, 0 is no effect, 10 is complete control
[32] = Rate 500 g/ha, Pre-emergence section of Table B, 0 to 10 scale (0 no effect, 10 complete control)

CC(C)N(C(=O)n1oc(=O)n(CCNC(=O)CCl)c1=O)c1ccccc1 [Compound 492]
B. signalgrass plant response rating [1, 21]: 0
B. signalgrass plant response rating ([1]; Postemergence, Rate 250 g/ha, scale 0 to 10, 0 no effect, 10 complete control): 0
Plant response rating, B. signalgrass [1, 22]: 0
Plant response rating, B. signalgrass [1, 23]: 0
B. signalgrass plant response rating [1, 24]: 0
B. signalgrass plant response rating [1, 25]: 0
B. signalgrass plant response rating [1, 26]: 0
B. signalgrass plant response rating [1, 27]: 0
Nutsedge plant response rating [2, 21]: 0
Plant response rating, Nutsedge [2, 22]: 0
Plant response rating, Nutsedge [2, 23]: 0
Nutsedge plant response rating [2, 24]: 0
Nutsedge plant response rating [2, 26]: 0
Nutsedge plant response rating [2, 27]: 0
Corn plant response rating [3, 21]: 0
Corn plant response rating [3, 28]: 0
Plant response rating, Corn [3, 22]: 0
Plant response rating, Corn [3, 23]: 0
Corn plant response rating [3, 24]: 0
Corn plant response rating [3, 26]: 0
Corn plant response rating [3, 27]: 0
Soybean plant response rating [4, 21]: 0
Plant response rating, Soybean [4, 22]: 0
Plant response rating, Soybean [4, 23]: 0
Soybean plant response rating [4, 24]: 0
Soybean plant response rating [4, 26]: 0
Soybean plant response rating [4, 27]: 0
Wheat plant response rating [5, 21]: 0
Plant response rating, Wheat [5, 22]: 0
Plant response rating, Wheat [5, 23]: 0
Wheat plant response rating [5, 24]: 0
Wheat plant response rating [5, 26]: 0
Wheat plant response rating [5, 27]: 0
Plant response rating, Barnyardgrass (0 to 10 scale, 0 is no effect, 10 is complete control) [6, 29]: 0
Barnyardgrass plant response rating (0 to 10 scale, 0 is no effect, 10 is complete control) [6, 30]: 0
Barnyardgrass plant response rating [6, 31]: 0
Barnyardgrass plant response rating [6, 32]: 0
Rape plant response rating [7, 21]: 0
Plant response rating, Rape [7, 22]: 0
Plant response rating, Rape [7, 23]: 0
Rape plant response rating [7, 24]: 0
Rape plant response rating [7, 26]: 0
Rape plant response rating [7, 27]: 0
Wild oats plant response rating [8, 21]: 0
Plant response rating, Wild oats [8, 22]: 0
Plant response rating, Wild oats [8, 23]: 0
Wild oats plant response rating [8, 24]: 0
Wild oats plant response rating [8, 26]: 0
Wild oats plant response rating [8, 27]: 0
Plant response rating, Bedstraw ([9]; Rate 62 g/ha, scale of 0 to 10 where 0 is no effect and 10 is complete control): 0
Bedstraw plant response rating ([9]; Rate 125 g/ha): 0
Bedstraw plant response rating ([9]; Rate 250 g/ha): 0
Bedstraw plant response rating ([9]; Rate 500 g/ha): 0
Sugarbeets plant response rating [10, 21]: 0
Plant response rating, Sugarbeets [10, 22]: 0
Plant response rating, Sugarbeets [10, 23]: 0
Sugarbeets plant response rating [10, 24]: 0
Sugarbeets plant response rating [10, 26]: 0
Sugarbeets plant response rating [10, 27]: 0
Blackgrass plant response rating [11, 21]: 0
Blackgrass plant response rating [11, 28]: 0
Plant response rating, Blackgrass [11, 22]: 0
Plant response rating, Blackgrass [11, 23]: 0
Blackgrass plant response rating [11, 24]: 0
Blackgrass plant response rating [11, 25]: 0
Blackgrass plant response rating [11, 26]: 0
Blackgrass plant response rating [11, 27]: 0
Crabgrass plant response rating [12, 28]: 0
Plant response rating, Crabgrass [12, 22]: 0
Plant response rating, Crabgrass [12, 23]: 0
Crabgrass plant response rating [12, 24]: 0
Crabgrass plant response rating [12, 26]: 3
Crabgrass plant response rating [12, 27]: 0
Giant foxtail plant response rating [13, 21]: 0
Plant response rating, Giant foxtail [13, 22]: 0
Plant response rating, Giant foxtail [13, 23]: 2
Giant foxtail plant response rating [13, 24]: 0
Giant foxtail plant response rating [13, 26]: 9
Giant foxtail plant response rating [13, 27]: 0
Redroot pigweed plant response rating [14, 21]: 0
Plant response rating, Redroot pigweed [14, 22]: 7
Plant response rating, Redroot pigweed [14, 23]: 0
Redroot pigweed plant response rating [14, 24]: 0
Redroot pigweed plant response rating [14, 26]: 0
Redroot pigweed plant response rating [14, 27]: 0
Velvetleaf plant response rating [15, 21]: 0
Plant response rating, Velvetleaf [15, 22]: 0
Plant response rating, Velvetleaf [15, 23]: 0
Velvetleaf plant response rating [15, 24]: 0
Velvetleaf plant response rating [15, 26]: 4
Velvetleaf plant response rating [15, 27]: 0
Cocklebur plant response rating [16, 21]: 0
Cocklebur plant response rating [16, 28]: 0
Plant response rating, Cocklebur [16, 22]: 0
Plant response rating, Cocklebur [16, 23]: 0
Cocklebur plant response rating [16, 24]: 0
Cocklebur plant response rating [16, 25]: 0
Cocklebur plant response rating [16, 26]: 0
Cocklebur plant response rating [16, 27]: 0
Plant response rating, S. Flatsedge (0 to 10 scale, 0 is no effect, 10 is complete control) [17, 29]: 0
S. Flatsedge plant response rating (0 to 10 scale, 0 is no effect, 10 is complete control) [17, 30]: 0
S. Flatsedge plant response rating [17, 31]: 0
S. Flatsedge plant response rating [17, 32]: 0
Plant response rating, Ducksalad (0 to 10 scale, 0 is no effect, 10 is complete control) [18, 29]: 0
Ducksalad plant response rating (0 to 10 scale, 0 is no effect, 10 is complete control) [18, 30]: 0
Ducksalad plant response rating [18, 31]: 0
Ducksalad plant response rating [18, 32]: 0
Morningglory plant response rating [19, 21]: 5
Plant response rating, Morningglory [19, 22]: 8
Plant response rating, Morningglory [19, 23]: 0
Morningglory plant response rating [19, 24]: 0
Morningglory plant response rating [19, 26]: 0
Morningglory plant response rating [19, 27]: 0
Plant response rating, Rice (0 to 10 scale, 0 is no effect, 10 is complete control) [20, 29]: 0
Rice plant response rating (0 to 10 scale, 0 is no effect, 10 is complete control) [20, 30]: 0
Rice plant response rating [20, 31]: 0
Rice plant response rating [20, 32]: 0
